Patent publication US11174245B2, “Benzimidazole compounds and derivatives as EGFR inhibitors” (Boehringer Ingelheim International GmbH, priority 2018, dated 2021)
Like-named read-outs stand apart in the source and are kept apart here.

Assays:
[1] = tested on: Ba/F3 cells EGFR-indep. + IL-3; assay: Ba/F3 proliferation assay (CellTiter-Glo viability), EGFR-independent cells with IL-3; type: cell-based, murine; details: Mus musculus, BaF3, Ba/F3 EGFR-independent + IL-3
Description: (§1) Plasmids containing EGFR mutants were obtained from GeneScript. To generate EGFR-dependent […] were transduced with retroviruses containing vectors that harbor EGFR isoforms. Platinum-E cells (Cell Biolabs) were used for retrovirus packaging. Retrovirus was added to Ba/F3 cells. To ensure infection, 4 μg/mL polybrene was added and cells were spinfected. Infection efficiency was confirmed by measuring GFP-positive cells using a cell analyzer. Cells with an infection efficiency of 10% to 20% were further cultivated and puromycin selection with 1 μg/mL was initiated. As a control, parental Ba/F3 cells were used to show selection status. Selection was considered successful when parental Ba/F3 cells cultures died. To evaluate the transforming potential of EGFR mutations, the growth medium was no longer supplemented with IL-3. Ba/F3 cells harboring the empty vector were used as a control. A switch from IL-3 to EGF was performed for Ba/F3 cells with the wildtype EGFR known for its dependency on EGF ligand. Approximately ten days before conducting the experiments, puromycin was left out. For proliferation assays (data in table 13), Ba/F3 cells were seeded into 96-well plates at 5×10^3 cells/100 μL in growth media. Compounds were added by using a HP D3000 Digital Dispenser. All treatments were performed in technical triplicates. Treated cells were incubated for 72 h at 37° C. with 5% CO2. CellTiter-Glo® Luminescent Cell Viability Assay (Promega) was performed and chemoluminescence was measured by using the multilabel Plate Reader VICTOR X4. The raw data were imported into and analyzed with the Boehringer Ingelheim proprietary software MegaLab (curve fitting based on the program PRISM, GraphPad Inc.).

[2] = target: EGFR wt (Homo sapiens (Human), UniProt P00533); assay: Biochemical EGFR inhibition assay (TR-FRET, poly-GT substrate), EGFR wt
Chain of EGFR wt (P00533 25-1210): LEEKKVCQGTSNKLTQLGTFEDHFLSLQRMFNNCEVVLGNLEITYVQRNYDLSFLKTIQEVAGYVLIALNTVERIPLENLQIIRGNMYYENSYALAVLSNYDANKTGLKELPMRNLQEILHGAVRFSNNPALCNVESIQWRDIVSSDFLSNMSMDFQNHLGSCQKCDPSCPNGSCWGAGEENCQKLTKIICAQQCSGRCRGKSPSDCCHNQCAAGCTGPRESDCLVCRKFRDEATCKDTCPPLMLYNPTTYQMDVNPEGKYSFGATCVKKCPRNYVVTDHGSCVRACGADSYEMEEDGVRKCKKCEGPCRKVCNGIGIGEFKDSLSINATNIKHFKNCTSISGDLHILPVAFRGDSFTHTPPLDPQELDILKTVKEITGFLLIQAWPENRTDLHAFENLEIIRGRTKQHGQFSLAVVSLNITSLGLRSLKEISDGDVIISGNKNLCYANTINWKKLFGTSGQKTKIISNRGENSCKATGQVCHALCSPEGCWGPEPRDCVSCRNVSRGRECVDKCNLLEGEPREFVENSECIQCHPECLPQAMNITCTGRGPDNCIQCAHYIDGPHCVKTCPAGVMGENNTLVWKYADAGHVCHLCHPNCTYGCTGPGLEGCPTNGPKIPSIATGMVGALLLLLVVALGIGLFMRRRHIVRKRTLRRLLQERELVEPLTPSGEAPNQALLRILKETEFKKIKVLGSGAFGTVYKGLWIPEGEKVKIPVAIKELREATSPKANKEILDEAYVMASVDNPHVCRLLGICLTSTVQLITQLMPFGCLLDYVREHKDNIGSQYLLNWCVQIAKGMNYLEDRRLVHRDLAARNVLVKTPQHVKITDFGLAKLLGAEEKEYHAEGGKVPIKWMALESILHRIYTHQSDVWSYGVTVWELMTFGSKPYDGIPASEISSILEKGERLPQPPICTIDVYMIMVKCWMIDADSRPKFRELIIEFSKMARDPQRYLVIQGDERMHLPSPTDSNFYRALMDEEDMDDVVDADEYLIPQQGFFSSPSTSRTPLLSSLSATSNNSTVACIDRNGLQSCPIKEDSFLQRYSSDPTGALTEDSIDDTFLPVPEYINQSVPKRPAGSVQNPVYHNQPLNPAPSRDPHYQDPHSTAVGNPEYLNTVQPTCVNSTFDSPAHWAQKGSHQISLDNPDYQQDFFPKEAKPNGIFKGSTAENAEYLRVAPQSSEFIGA
In short: (§2)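 Phosphorylation of tagged poly-GT substrate by EGFR forms measured at 5 μM and 100 μM ATP (final). Top compound concentration 100 μM, eleven fivefold dilutions, in duplicate. Results given as IC50.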

[3] = target: EGFR (d746-750 T790M C797S) (Homo sapiens (Human), UniProt P00533, C797S/DEL746-750/T790M); assay: Biochemical EGFR inhibition assay (TR-FRET, poly-GT substrate), EGFR d746-750 T790M C797S
Chain of EGFR (d746-750 T790M C797S) (P00533 other isoform, or with tags, fused parts or gaps T790M/C797S/del 1-694/del 746-750 limits assumed): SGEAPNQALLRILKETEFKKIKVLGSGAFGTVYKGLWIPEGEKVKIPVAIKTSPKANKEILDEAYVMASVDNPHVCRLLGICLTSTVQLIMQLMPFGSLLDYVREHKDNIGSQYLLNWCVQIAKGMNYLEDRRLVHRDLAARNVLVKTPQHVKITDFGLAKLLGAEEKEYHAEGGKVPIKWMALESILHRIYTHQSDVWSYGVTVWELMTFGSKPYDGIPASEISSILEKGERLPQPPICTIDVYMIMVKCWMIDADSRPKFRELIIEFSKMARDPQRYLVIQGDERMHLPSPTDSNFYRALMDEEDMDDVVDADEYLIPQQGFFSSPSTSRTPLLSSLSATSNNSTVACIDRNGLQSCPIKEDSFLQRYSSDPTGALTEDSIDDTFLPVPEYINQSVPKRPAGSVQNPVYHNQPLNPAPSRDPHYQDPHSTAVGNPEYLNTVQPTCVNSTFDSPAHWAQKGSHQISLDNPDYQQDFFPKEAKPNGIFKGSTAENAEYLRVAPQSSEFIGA
Description: Biochemical EGFR Inhibition Assays
Initially, the inhibitory effect of compounds according to the invention is measured in biochemical assays which measure the phosphorylation activity of EGFR enzyme forms on poly-GT substrate in the presence of different concentrations of ATP (5 μM and 100 μM final assay concentration).
The following enzyme forms of EGFR are representative examples that can be used in these assays at the given concentrations:
For the chosen highest assay concentration of 100 μM, 150 nL of compound solution is transferred from a 10 mM DMSO compound stock solution. A series of eleven fivefold dilutions per compound is transferred to the assay plate, compound dilutions are tested in duplicates. DMSO is added as backfill to a total volume of 150 nL. The assay runs on a fully automated robotic system.
These biochemical EGFR enzyme form compound dose-response assays quantify the kinase activity via phosphorylation of a tagged poly-GT substrate. The results of the assay are provided as IC50 values.

[4] = target: EGFR del19 T790M C797S protein in Ba/F3 cells (Homo sapiens, UniProt P00533, C797S/DEL746-750/T790M); assay: pEGFR assay (AlphaScreen Surefire, EGFR Tyr1068 phosphorylation); type: cell-based
Chain of EGFR del19 T790M C797S protein in Ba/F3 cells (P00533 with tags, fused parts or gaps C797S/DEL746-750/T790M limits assumed): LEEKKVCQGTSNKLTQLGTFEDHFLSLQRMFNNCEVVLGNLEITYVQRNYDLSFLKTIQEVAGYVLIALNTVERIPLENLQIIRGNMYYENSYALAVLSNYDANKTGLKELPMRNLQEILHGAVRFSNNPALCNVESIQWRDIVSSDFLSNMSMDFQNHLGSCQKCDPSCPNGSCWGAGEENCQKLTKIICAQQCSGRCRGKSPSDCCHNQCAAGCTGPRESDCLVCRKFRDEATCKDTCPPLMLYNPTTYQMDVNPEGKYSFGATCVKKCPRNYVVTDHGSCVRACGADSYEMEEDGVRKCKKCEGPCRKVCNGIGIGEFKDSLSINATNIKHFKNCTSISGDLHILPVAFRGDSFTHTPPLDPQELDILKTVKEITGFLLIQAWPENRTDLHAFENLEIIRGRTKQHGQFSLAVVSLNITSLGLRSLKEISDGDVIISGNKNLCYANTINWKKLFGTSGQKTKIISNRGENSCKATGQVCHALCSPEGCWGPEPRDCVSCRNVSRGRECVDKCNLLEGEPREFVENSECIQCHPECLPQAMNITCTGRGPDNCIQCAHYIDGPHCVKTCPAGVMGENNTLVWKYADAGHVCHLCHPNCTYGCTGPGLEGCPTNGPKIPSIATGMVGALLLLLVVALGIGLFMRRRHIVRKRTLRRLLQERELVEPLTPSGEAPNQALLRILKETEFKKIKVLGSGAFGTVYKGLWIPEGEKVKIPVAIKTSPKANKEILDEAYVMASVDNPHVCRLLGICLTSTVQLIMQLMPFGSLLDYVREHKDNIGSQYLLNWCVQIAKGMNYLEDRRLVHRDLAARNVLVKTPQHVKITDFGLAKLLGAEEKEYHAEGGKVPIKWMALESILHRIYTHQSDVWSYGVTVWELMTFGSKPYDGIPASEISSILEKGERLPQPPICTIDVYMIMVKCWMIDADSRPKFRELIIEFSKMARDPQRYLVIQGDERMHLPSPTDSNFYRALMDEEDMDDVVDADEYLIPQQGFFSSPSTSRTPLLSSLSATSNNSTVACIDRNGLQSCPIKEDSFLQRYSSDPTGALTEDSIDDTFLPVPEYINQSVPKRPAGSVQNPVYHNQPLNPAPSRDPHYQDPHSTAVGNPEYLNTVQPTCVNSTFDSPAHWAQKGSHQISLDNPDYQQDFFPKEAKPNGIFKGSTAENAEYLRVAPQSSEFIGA
In short: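 Transduced Ba/F3 cells, puromycin-selected and grown IL-3 independent, were treated with compound at 60.000 cells/well for 4 h at 37° C. Lysis followed for 20 min at room temperature, and Tyr1068 phospho-EGFR in lysate was detected after 2 h dark incubation. Results are IC50 values.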

[5] = tested on: Ba/F3 cells with the wildtype EGFR; assay: Ba/F3 proliferation assay (CellTiter-Glo viability), wildtype EGFR with EGF; type: cell-based, murine; details: Mus musculus, BaF3, Ba/F3 EGFR wt
Description: (§3) Ba/F3 Cell Model Generation and Proliferation Assays
as §1

[6] = target: EGFR (mutated) 695-1022, T790M, C797S, L858R (Homo sapiens (Human), UniProt P00533, C797S/L858R/T790M); assay: Biochemical EGFR inhibition assay (TR-FRET, poly-GT substrate), EGFR T790M C797S L858R
Chain of EGFR (mutated) 695-1022, T790M, C797S, L858R (P00533 695-1022 T790M/C797S/L858R): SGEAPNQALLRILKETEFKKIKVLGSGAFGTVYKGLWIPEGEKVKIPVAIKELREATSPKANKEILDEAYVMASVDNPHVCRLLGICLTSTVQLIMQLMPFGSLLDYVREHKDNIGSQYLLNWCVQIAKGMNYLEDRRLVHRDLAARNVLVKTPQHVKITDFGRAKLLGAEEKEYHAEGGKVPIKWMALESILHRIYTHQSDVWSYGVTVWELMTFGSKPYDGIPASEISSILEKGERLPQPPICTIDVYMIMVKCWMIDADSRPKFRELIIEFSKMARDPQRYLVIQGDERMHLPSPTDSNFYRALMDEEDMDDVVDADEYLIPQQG
In short: as §2

[7] = tested on: Ba/F3 cells driven by EGFR mutants; assay: Ba/F3 proliferation assay (CellTiter-Glo viability), EGFR mutant alleles; type: cell-based, murine; details: Mus musculus
Description: as §3, §1

[8] = tested on: EGFR M+ NSCLC patients; details: cited from earlier work; for objective response rate: EGFR M+ NSCLC patients treated in 1st line
[9] = tested on: EGFR M+ T790M-positive NSCLC patients; details: 2nd line, cited from earlier work
[10] = read-out: wt (5 μM ATP) IC50, 5 μM ATP
[11] = read-out: wt (100 μM ATP) IC50, 100 μM ATP
[12] = read-out: LR_TM_CS (5 μM ATP) IC50, 5 μM ATP
[13] = read-out: LR_TM_CS (100 μM ATP) IC50, 100 μM ATP
[14] = BaF3, Ba/F3 EGFR L858R C797S, read-out: IC50 EGFR L858R C797S
[15] = BaF3, Ba/F3 EGFR L858R T790M C797S, read-out: IC50 EGFR L858R T790M C797S
[16] = BaF3, Ba/F3 EGFR L858R T790M, read-out: IC50 EGFR L858R T790M
[17] = BaF3, Ba/F3 EGFR L858R, read-out: IC50 EGFR L858R
[18] = BaF3, Ba/F3 EGFR del19, read-out: IC50 EGFR del19
[19] = BaF3, Ba/F3 EGFR del19 C797S, read-out: IC50 EGFR del19 C797S
[20] = BaF3, Ba/F3 EGFR del19 T790M C797S, read-out: IC50 EGFR del19 T790M C797S
[21] = BaF3, Ba/F3 EGFR del19 T790M, read-out: IC50 EGFR del19 T790M

SMILES | IC50 [2, 10] [nM] | IC50 [4] [nM] | IC50 [5] [nM] | IC50 [6, 12] [nM] | IC50 ([3]; 5 μM ATP) [nM] | further results
Cn1cc(-c2cc(C(=O)/N=c3\[nH]c4ccccc4n3C3CCCCC3)ccn2)cn1 [I-015] | 125 | 9 | 2220 | 0.8 | – | IC50 [1]: 6.52 µM; IC50 [2, 11]: 114 nM; IC50 ([3]; 100 μM ATP): 2 nM; IC50 [6, 13]: 10.5 nM; IC50 [7, 14]: 290 nM; IC50 [7, 15]: 284 nM; IC50 [7, 16]: 408 nM; IC50 [7, 17]: 274 nM; IC50 [7, 18]: 45.8 nM; IC50 [7, 19]: 21.1 nM; IC50 [7, 20]: 47 nM; IC50 [7, 21]: 169 nM
Cn1cc(-c2cc(C(=O)/N=c3\[nH]c4ccccc4n3[C@H]3CC[C@@H](O)CC3)ccn2)cn1 [I-048] | 32.3 | 1 | 540 | 0.4 | – | IC50 [1]: 7.94 µM; IC50 [2, 11]: 1310 nM; IC50 [6, 13]: 5.7 nM; IC50 [7, 14]: 52.1 nM; IC50 [7, 15]: 48.2 nM; IC50 [7, 16]: 79.4 nM; IC50 [7, 17]: 39.2 nM; IC50 [7, 18]: 10.9 nM; IC50 [7, 19]: 9.1 nM; IC50 [7, 20]: 12 nM; IC50 [7, 21]: 32.9 nM
COc1ccccc1-c1cc(C(=O)/N=c2\[nH]c3cc(C)ccc3n2[C@H]2CC[C@@H](O)CC2)ccn1 [I-109] | 12.5 | 4 | 728 | 0.5 | – | IC50 [1]: 8.65 µM; IC50 [2, 11]: 549 nM; IC50 [6, 13]: 8.8 nM; IC50 [7, 14]: 51.5 nM; IC50 [7, 15]: 146 nM; IC50 [7, 16]: 177 nM; IC50 [7, 17]: 38.3 nM; IC50 [7, 18]: 9.1 nM; IC50 [7, 19]: 7 nM; IC50 [7, 20]: 23.5 nM; IC50 [7, 21]: 52.9 nM
Cn1cc(-c2cc(C(=O)/N=c3\[nH]c4ccccc4n3[C@H]3CC[C@@H](O)CC3)cc(C#N)n2)cn1 [I-136] | 164 | 2 | – | 0.8 | 0.2 | IC50 [2, 11]: > 100000 nM; IC50 [6, 13]: 31.6 nM
Cn1cc(-c2cc(C(=O)/N=c3\[nH]c4ccccc4n3[C@H]3CCC[C@H](O)C3)ccn2)cn1 [I-137] | 108 | 2 | 2060 | 0.8 | – | IC50 [1]: 9.06 µM; IC50 [7, 14]: 100 nM; IC50 [7, 15]: 137 nM; IC50 [7, 16]: 178 nM; IC50 [7, 17]: 91.6 nM; IC50 [7, 18]: 16.6 nM; IC50 [7, 19]: 8.7 nM; IC50 [7, 20]: 20.7 nM; IC50 [7, 21]: 72 nM
Cc1cc(C(=O)/N=c2\[nH]c3ccccc3n2[C@H]2CC[C@@H](O)CC2)cc(-c2cnn(C)c2)n1 [I-143] | 2180 | 3 | – | 1.9 | 0.4 | IC50 [2, 11]: > 100000 nM; IC50 [6, 13]: 104 nM
CC(=O)N1CCC(c2ccc3c(c2)[nH]/c(=N\C(=O)c2ccnc(-c4cnn(C)c4)c2)n3[C@H]2CC[C@@H](O)CC2)CC1 [I-219] | 25.8 | 2 | – | 0.4 | 0.1 | –
Cn1cc(-c2cc(C(=O)/N=c3\[nH]c4ccccc4n3C3CCC[S+]([O-])C3)ccn2)cn1 (centres unmarked) [I-220] | 2860 | 59 | – | 32.7 | 2 | –
Cc1cc(C(=O)/N=c2\[nH]c3ccc(CN4CCOCC4)cc3n2C2CCCCC2)cc(-c2cnn(C)c2)n1 [I-221] | 2050 | 5 | – | 2 | 0.4 | –
Cc1cc(C(=O)/N=c2\[nH]c3ccc(CN4CCN(C)CC4)cc3n2[C@H]2CC[C@@H](O)CC2)cc(-c2cnn(C)c2)n1 [I-222] | 318 | 5 | – | 0.6 | 0.2 | –
Cc1cc(C(=O)/N=c2\[nH]c3ccc(CN4CCOCC4)cc3n2[C@H]2CC[C@@H](O)CC2)cc(-c2cnn(C)c2)n1 [I-223] | 2020 | 4 | – | 1.8 | 0.5 | –
Cc1cc(C(=O)/N=c2\[nH]c3ccc(CN4CCN(C)CC4)cc3n2C2CCCCC2)cc(-c2cnn(C)c2)n1 [I-224] | 267 | 3 | – | 0.5 | 0.2 | –
Cc1cc(C(=O)/N=c2\[nH]c3ccc(C4CCN(C)CC4)cc3n2[C@H]2CC[C@@H](O)CC2)cc(-c2cnn(C)c2)n1 [I-225] | 162 | 2 | – | 0.4 | 0.2 | –
COc1cc2ncnc(Nc3ccc(F)c(Cl)c3)c2cc1NC(=O)/C=C/CN1CCCCC1 [dacomitinib, reference compound] | – | – | 0.64 | – | – | –
C#Cc1cccc(Nc2ncnc3cc(OCCOC)c(OCCOC)cc23)c1 [erlotinib] | – | – | – | – | – | objective response rate [8]: 60-85%
Cc1cc(C(=O)Nc2nc3cccc(Cl)c3n2[C@@H]2CCCCN(C(=O)/C=C/CN(C)C)C2)ccn1 [nazartinib, reference compound] | – | – | 95.1 | – | – | IC50 [1]: > 5 µM
C=CC(=O)Nc1cc(Nc2nccc(-c3cn(C)c4ccccc34)n2)c(OC)cc1N(C)CCN(C)C [osimertinib] | – | – | – | – | – | patients responding to treatment ([9]; previously treated with earlier generation EGFR TKI): Approximately 70%; average duration until disease progression [9]: 10 months; objective response rate [8]: 60-85%; average duration until disease progression ([8]; previously untreated EGFR M+ NSCLC patients): 19 months
